PMC11249646, “Small-Molecule Disruptors of the Interaction between Calcium- and Integrin-Binding Protein 1 and Integrin αIIbβ3 as Novel Antiplatelet Agents” (ACS Pharmacology & Translational Science, 2024)

These compounds were tested against T1, GST-CIB1 : F-scrambled peptide (Homo sapiens, UniProt Q99828) (assay: FP scrambled-peptide counter screen, 384-well format). Conditions: F-scrambled peptide.
T1 construct: made in house; host or cells: BL-21 plus RIL cells (E. coli)
T1 sequence (Q99828 1-191): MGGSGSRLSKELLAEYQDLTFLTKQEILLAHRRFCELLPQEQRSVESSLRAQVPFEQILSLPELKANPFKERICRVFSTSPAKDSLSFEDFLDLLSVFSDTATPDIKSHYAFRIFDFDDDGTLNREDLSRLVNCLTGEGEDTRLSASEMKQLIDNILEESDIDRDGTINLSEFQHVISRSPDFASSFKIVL
Type: binding
With `COc1ccccc1S(=O)(=O)Nc1cnccc1C(=O)Nc1nc(-c2ccccc2)cs1.O=C(O)C(F)(F)F` [NCGC00344905-01] the “384-well COUNTERSCREEN Efficacy (%)” value was 44%.
`CCc1ccc(S(=O)(=O)Nc2cnccc2C(=O)Nc2nc(-c3ccccc3)cs2)cc1.O=C(O)C(F)(F)F` [NCGC00344909-01] was tested, and the “384-well COUNTERSCREEN Efficacy (%)” value was 44%.
`O=C(Nc1nc(-c2ccccc2)cs1)c1ccncc1NS(=O)(=O)c1cccc2cccnc12.O=C(O)C(F)(F)F` [NCGC00344938-01] was tested, and the “384-well COUNTERSCREEN Efficacy (%)” value was 18%.

Same assay, conditions: F-scrambled peptide; *: Curve in opposite direction
`CCc1ccc(S(=O)(=O)Nc2cnccc2C(=O)Nc2nc(-c3ccccc3)cs2)cc1.O=C(O)C(F)(F)F` [NCGC00344909-01] was tested, and the “384-well COUNTERSCREEN Confirm?” value was “YES”.
In the case of `O=C(Nc1nc(-c2ccccc2)cs1)c1ccncc1NS(=O)(=O)c1cccc2cccnc12.O=C(O)C(F)(F)F` [NCGC00344938-01], the “384-well COUNTERSCREEN Confirm?” value is reported as “YES”.

Same assay, conditions: F-scrambled peptide; read-out: 384-well COUNTERSCREEN IC50
`COc1ccccc1S(=O)(=O)Nc1cnccc1C(=O)Nc1nc(-c2ccccc2)cs1.O=C(O)C(F)(F)F` [NCGC00344905-01] gave an IC50 of 10 µM.
`CCc1ccc(S(=O)(=O)Nc2cnccc2C(=O)Nc2nc(-c3ccccc3)cs2)cc1.O=C(O)C(F)(F)F` [NCGC00344909-01] showed an IC50 greater than 120 µM.
`O=C(Nc1nc(-c2ccccc2)cs1)c1ccncc1NS(=O)(=O)c1cccc2cccnc12.O=C(O)C(F)(F)F` [NCGC00344938-01] gave an IC50 greater than 120 µM.

Each compound was assayed against T2, CIB1 and αIIb interaction (GST-CIB1 : F-αIIb peptide) (Homo sapiens, UniProt Q99828) (assay: FP assay, 384-well format (screen)). Conditions: F-αIIb peptide.
T2 construct: made in house; host or cells: BL-21 plus RIL cells (E. coli)
T2 sequence (Q99828 1-191): T1 sequence (Q99828 1-191)
Type: binding
Parameters: 384-well SCREEN Efficacy (%): concentration or dose not given beside the values
With `COc1ccccc1S(=O)(=O)Nc1cnccc1C(=O)Nc1nc(-c2ccccc2)cs1.O=C(O)C(F)(F)F` [NCGC00344905-01] the “384-well SCREEN Efficacy (%)” value was 37%.
`CCc1ccc(S(=O)(=O)Nc2cnccc2C(=O)Nc2nc(-c3ccccc3)cs2)cc1.O=C(O)C(F)(F)F` [NCGC00344909-01] was tested, and the “384-well SCREEN Efficacy (%)” value was 40%.
`O=C(Nc1nc(-c2ccccc2)cs1)c1ccncc1NS(=O)(=O)c1cccc2cccnc12.O=C(O)C(F)(F)F` [NCGC00344938-01] was tested, and the “384-well SCREEN Efficacy (%)” value was 16%.

Same assay, conditions: F-αIIb peptide; YES/NO
With `COc1ccccc1S(=O)(=O)Nc1cnccc1C(=O)Nc1nc(-c2ccccc2)cs1.O=C(O)C(F)(F)F` [NCGC00344905-01] the “384-well SCREEN Confirm?” value was “YES”.
In the case of `CCc1ccc(S(=O)(=O)Nc2cnccc2C(=O)Nc2nc(-c3ccccc3)cs2)cc1.O=C(O)C(F)(F)F` [NCGC00344909-01], the “384-well SCREEN Confirm?” value is reported as “YES”.
`O=C(Nc1nc(-c2ccccc2)cs1)c1ccncc1NS(=O)(=O)c1cccc2cccnc12.O=C(O)C(F)(F)F` [NCGC00344938-01] was tested, and the “384-well SCREEN Confirm?” value was “YES”.

Same assay, conditions: F-αIIb peptide; read-out: 384-well SCREEN IC50
With `COc1ccccc1S(=O)(=O)Nc1cnccc1C(=O)Nc1nc(-c2ccccc2)cs1.O=C(O)C(F)(F)F` [NCGC00344905-01] the IC50 was 7.1 µM.
`CCc1ccc(S(=O)(=O)Nc2cnccc2C(=O)Nc2nc(-c3ccccc3)cs2)cc1.O=C(O)C(F)(F)F` [NCGC00344909-01] was tested, and the IC50 was 35.5 µM.
Work on `O=C(Nc1nc(-c2ccccc2)cs1)c1ccncc1NS(=O)(=O)c1cccc2cccnc12.O=C(O)C(F)(F)F` [NCGC00344938-01] yielded an IC50 of 6.3 µM.

These compounds were tested against T3, CIB1 and αIIb interaction (CIB1-GST : F-αIIb peptide) (Homo sapiens, UniProt Q99828) (assay: FP assay, 1536-well qHTS format (primary and confirmatory screen)). Conditions: confirmatory screen, YES/NO call.
T3 construct: made in house; host or cells: BL-21 plus RIL cells (E. coli)
T3 sequence (Q99828 1-191): T1 sequence (Q99828 1-191)
Type: binding
`COc1ccccc1S(=O)(=O)Nc1cnccc1C(=O)Nc1nc(-c2ccccc2)cs1.O=C(O)C(F)(F)F` [NCGC00344905-01] was tested, and the “CONFIRMATORY SCREEN Confirm?” value was “YES”.
In the case of `CCc1ccc(S(=O)(=O)Nc2cnccc2C(=O)Nc2nc(-c3ccccc3)cs2)cc1.O=C(O)C(F)(F)F` [NCGC00344909-01], the “CONFIRMATORY SCREEN Confirm?” value is reported as “YES”.
With `O=C(Nc1nc(-c2ccccc2)cs1)c1ccncc1NS(=O)(=O)c1cccc2cccnc12.O=C(O)C(F)(F)F` [NCGC00344938-01] the “CONFIRMATORY SCREEN Confirm?” value was “YES”.

Same assay, conditions: confirmatory screen, qHTS curve class; negative sign = inhibitory curve
`COc1ccccc1S(=O)(=O)Nc1cnccc1C(=O)Nc1nc(-c2ccccc2)cs1.O=C(O)C(F)(F)F` [NCGC00344905-01] was tested, and the “CONFIRMATORY SCREEN Curve Class” value was -2.2.
For `CCc1ccc(S(=O)(=O)Nc2cnccc2C(=O)Nc2nc(-c3ccccc3)cs2)cc1.O=C(O)C(F)(F)F` [NCGC00344909-01], the “CONFIRMATORY SCREEN Curve Class” value was -2.2.
In the case of `O=C(Nc1nc(-c2ccccc2)cs1)c1ccncc1NS(=O)(=O)c1cccc2cccnc12.O=C(O)C(F)(F)F` [NCGC00344938-01], the “CONFIRMATORY SCREEN Curve Class” value is reported as -2.2.

Same assay, conditions: confirmatory screen; negative = inhibition
`COc1ccccc1S(=O)(=O)Nc1cnccc1C(=O)Nc1nc(-c2ccccc2)cs1.O=C(O)C(F)(F)F` [NCGC00344905-01] was tested, and the “CONFIRMATORY SCREEN Efficacy (%)” value was -79%.
`CCc1ccc(S(=O)(=O)Nc2cnccc2C(=O)Nc2nc(-c3ccccc3)cs2)cc1.O=C(O)C(F)(F)F` [NCGC00344909-01] was tested, and the “CONFIRMATORY SCREEN Efficacy (%)” value was -82%.
`O=C(Nc1nc(-c2ccccc2)cs1)c1ccncc1NS(=O)(=O)c1cccc2cccnc12.O=C(O)C(F)(F)F` [NCGC00344938-01] was tested, and the “CONFIRMATORY SCREEN Efficacy (%)” value was -93%.

Same assay, conditions: confirmatory screen; read-out: CONFIRMATORY SCREEN IC50
For `CCc1ccc(S(=O)(=O)Nc2cnccc2C(=O)Nc2nc(-c3ccccc3)cs2)cc1.O=C(O)C(F)(F)F` [NCGC00344909-01], the IC50 was 22.4 µM.
Work on `O=C(Nc1nc(-c2ccccc2)cs1)c1ccncc1NS(=O)(=O)c1cccc2cccnc12.O=C(O)C(F)(F)F` [NCGC00344938-01] yielded an IC50 of 35.5 µM.

Same assay, conditions: qHTS FP screen hits, Table S2; negative = inhibition
`COc1ccccc1S(=O)(=O)Nc1cnccc1C(=O)Nc1nc(-c2ccccc2)cs1.O=C(O)C(F)(F)F` [NCGC00344905-01] was tested, and the “Efficacy (%)” value was -43%.

Same assay, conditions: qHTS FP screen hits, Table S2; one class per curve where COUNT > 1; negative sign = inhibitory curve
`COc1ccccc1S(=O)(=O)Nc1cnccc1C(=O)Nc1nc(-c2ccccc2)cs1.O=C(O)C(F)(F)F` [NCGC00344905-01] was tested, and the “Curve Class” value was -2.2.

Same assay, conditions: qHTS primary screen hits, Table S2; negative = inhibition
With `CCc1ccc(S(=O)(=O)Nc2cnccc2C(=O)Nc2nc(-c3ccccc3)cs2)cc1.O=C(O)C(F)(F)F` [NCGC00344909-01] the “Efficacy (%)” value was -57%.
With `O=C(Nc1nc(-c2ccccc2)cs1)c1ccncc1NS(=O)(=O)c1cccc2cccnc12.O=C(O)C(F)(F)F` [NCGC00344938-01] the “Efficacy (%)” value was -56%.

Same assay, conditions: qHTS primary screen hits, Table S2; negative sign = inhibitory curve; several classes where COUNT > 1
In the case of `CCc1ccc(S(=O)(=O)Nc2cnccc2C(=O)Nc2nc(-c3ccccc3)cs2)cc1.O=C(O)C(F)(F)F` [NCGC00344909-01], the “Curve Class” value is reported as -2.2.
In the case of `O=C(Nc1nc(-c2ccccc2)cs1)c1ccncc1NS(=O)(=O)c1cccc2cccnc12.O=C(O)C(F)(F)F` [NCGC00344938-01], the “Curve Class” value is reported as -2.2.

Same assay, conditions: qHTS primary screen hits, Table S2; read-out: IC50
`CCc1ccc(S(=O)(=O)Nc2cnccc2C(=O)Nc2nc(-c3ccccc3)cs2)cc1.O=C(O)C(F)(F)F` [NCGC00344909-01] showed an IC50 of 79.4 µM.
In the case of `O=C(Nc1nc(-c2ccccc2)cs1)c1ccncc1NS(=O)(=O)c1cccc2cccnc12.O=C(O)C(F)(F)F` [NCGC00344938-01], the IC50 is reported as 39.8 µM.

The compounds below were run against T1, GST-CIB1 : F-scrambled peptide (assay: FP scrambled-peptide counter screen, 1536-well format). Conditions: scrambled-peptide counterscreen.
Type: binding
For `COc1ccccc1S(=O)(=O)Nc1cnccc1C(=O)Nc1nc(-c2ccccc2)cs1.O=C(O)C(F)(F)F` [NCGC00344905-01], the “COUNTERSCREEN Efficacy (%)” value was -15%.
`CCc1ccc(S(=O)(=O)Nc2cnccc2C(=O)Nc2nc(-c3ccccc3)cs2)cc1.O=C(O)C(F)(F)F` [NCGC00344909-01] was tested, and the “COUNTERSCREEN Efficacy (%)” value was 14%.
`O=C(Nc1nc(-c2ccccc2)cs1)c1ccncc1NS(=O)(=O)c1cccc2cccnc12.O=C(O)C(F)(F)F` [NCGC00344938-01] was tested, and the “COUNTERSCREEN Efficacy (%)” value was -33%.

Same assay, conditions: scrambled-peptide counterscreen, YES/NO call
For `COc1ccccc1S(=O)(=O)Nc1cnccc1C(=O)Nc1nc(-c2ccccc2)cs1.O=C(O)C(F)(F)F` [NCGC00344905-01], the “COUNTERSCREEN Confirm?” value was “YES”.
In the case of `CCc1ccc(S(=O)(=O)Nc2cnccc2C(=O)Nc2nc(-c3ccccc3)cs2)cc1.O=C(O)C(F)(F)F` [NCGC00344909-01], the “COUNTERSCREEN Confirm?” value is reported as “YES”.
In the case of `O=C(Nc1nc(-c2ccccc2)cs1)c1ccncc1NS(=O)(=O)c1cccc2cccnc12.O=C(O)C(F)(F)F` [NCGC00344938-01], the “COUNTERSCREEN Confirm?” value is reported as “YES”.

Same assay, conditions: scrambled-peptide counterscreen, qHTS curve class
For `COc1ccccc1S(=O)(=O)Nc1cnccc1C(=O)Nc1nc(-c2ccccc2)cs1.O=C(O)C(F)(F)F` [NCGC00344905-01], the “COUNTERSCREEN Curve Class” value was 4.
`CCc1ccc(S(=O)(=O)Nc2cnccc2C(=O)Nc2nc(-c3ccccc3)cs2)cc1.O=C(O)C(F)(F)F` [NCGC00344909-01] was tested, and the “COUNTERSCREEN Curve Class” value was 4.
In the case of `O=C(Nc1nc(-c2ccccc2)cs1)c1ccncc1NS(=O)(=O)c1cccc2cccnc12.O=C(O)C(F)(F)F` [NCGC00344938-01], the “COUNTERSCREEN Curve Class” value is reported as -2.4.

Same assay, conditions: scrambled-peptide counterscreen; read-out: COUNTERSCREEN IC50
`O=C(Nc1nc(-c2ccccc2)cs1)c1ccncc1NS(=O)(=O)c1cccc2cccnc12.O=C(O)C(F)(F)F` [NCGC00344938-01] was tested, and the IC50 was 70.8 µM.
